Test results taken from PubChem BioAssay (NCI).
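Protocol summary: plate cells (96-well), add compound at 5 concentrations, incubate 48 h, interpolate endpoints linearly. GI50: concentration for 50% inhibition of growth. TGI: concentration producing complete growth inhibition.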

What was measured:
Assay in all cases: NCI tumour cell line growth inhibition, 48 h
IGROV1 ovarian = tested on: IGROV1 ovarian
COLO 205 colon = tested on: COLO 205 colon
HL-60(TB) leukemia = tested on: HL-60(TB) leukemia
TK-10 renal = tested on: TK-10 renal
SK-MEL-5 melanoma = tested on: SK-MEL-5 melanoma
SK-OV-3 ovarian = tested on: SK-OV-3 ovarian
HCT-15 colon = tested on: HCT-15 colon
SN12C renal = tested on: SN12C renal
SF-539 CNS = tested on: SF-539 CNS
SNB-75 CNS = tested on: SNB-75 CNS
SNB-19 CNS = tested on: SNB-19 CNS
NCI/ADR-RES ovarian = tested on: NCI/ADR-RES ovarian
UACC-257 melanoma = tested on: UACC-257 melanoma
OVCAR-4 ovarian = tested on: OVCAR-4 ovarian
CAKI-1 renal = tested on: CAKI-1 renal
MALME-3M melanoma = tested on: MALME-3M melanoma
HCC-2998 colon = tested on: HCC-2998 colon
DU-145 prostate = tested on: DU-145 prostate
KM12 colon = tested on: KM12 colon
HCT-116 colon = tested on: HCT-116 colon
HT29 colon = tested on: HT29 colon
MDA-N = tested on: MDA-N
SK-MEL-2 melanoma = tested on: SK-MEL-2 melanoma
EKVX NSCLC = tested on: EKVX NSCLC
BT-549 breast = tested on: BT-549 breast
SF-295 CNS = tested on: SF-295 CNS
ACHN renal = tested on: ACHN renal
OVCAR-8 ovarian = tested on: OVCAR-8 ovarian
NCI-H23 lung = tested on: NCI-H23 lung
SK-MEL-28 melanoma = tested on: SK-MEL-28 melanoma
NCI-H522 lung = tested on: NCI-H522 lung
RPMI-8226 leukemia = tested on: RPMI-8226 leukemia
NCI-H226 lung = tested on: NCI-H226 lung
K-562 leukemia = tested on: K-562 leukemia
CCRF-CEM leukemia = tested on: CCRF-CEM leukemia
MDA-MB-231 breast = tested on: MDA-MB-231 breast
UACC-62 melanoma = tested on: UACC-62 melanoma
MDA-MB-435 = tested on: MDA-MB-435
OVCAR-5 ovarian = tested on: OVCAR-5 ovarian
OVCAR-3 ovarian = tested on: OVCAR-3 ovarian
NCI-H460 lung = tested on: NCI-H460 lung
PC-3 prostate = tested on: PC-3 prostate
U251 CNS = tested on: U251 CNS
M14 melanoma = tested on: M14 melanoma
786-0 renal = tested on: 786-0 renal
MOLT-4 leukemia = tested on: MOLT-4 leukemia
HOP-62 NSCLC = tested on: HOP-62 NSCLC
MCF7 breast = tested on: MCF7 breast
LOX IMVI melanoma = tested on: LOX IMVI melanoma
SW-620 colon = tested on: SW-620 colon
A549 NSCLC = tested on: A549 NSCLC
SF-268 CNS = tested on: SF-268 CNS
HOP-92 NSCLC = tested on: HOP-92 NSCLC
UO-31 renal = tested on: UO-31 renal
A498 renal = tested on: A498 renal
SR leukemia = tested on: SR leukemia
HS 578T breast = tested on: HS 578T breast

SMILES: Cc1cc(S(=O)(=O)Nc2nc3ccccc3c(=O)n2N)c(S)cc1Cl
- TGI (IGROV1 ovarian): > 100 µM
- TGI (COLO 205 colon): > 100 µM
- TGI (HL-60(TB) leukemia): > 100 µM
- TGI (TK-10 renal): > 100 µM
- TGI (SK-MEL-5 melanoma): > 100 µM
- TGI (SK-OV-3 ovarian): > 100 µM
- TGI (HCT-15 colon): > 100 µM
- TGI (SN12C renal): > 100 µM
- TGI (SF-539 CNS): > 100 µM
- GI50 (SNB-75 CNS): 13.3 µM
- TGI (SNB-75 CNS): 92.7 µM
- GI50 (SNB-19 CNS): 15.7 µM
- TGI (SNB-19 CNS): 47.2 µM
- TGI (NCI/ADR-RES ovarian): 83.4 µM
- TGI (UACC-257 melanoma): > 100 µM
- TGI (OVCAR-4 ovarian): > 100 µM
- TGI (CAKI-1 renal): > 100 µM
- TGI (MALME-3M melanoma): 56.9 µM
- TGI (HCC-2998 colon): > 100 µM
- TGI (DU-145 prostate): > 100 µM
- TGI (KM12 colon): > 100 µM
- TGI (HCT-116 colon): > 100 µM
- TGI (HT29 colon): > 100 µM
- TGI (MDA-N): > 100 µM
- TGI (SK-MEL-2 melanoma): > 100 µM
- TGI (EKVX NSCLC): > 100 µM
- TGI (BT-549 breast): > 100 µM
- TGI (SF-295 CNS): > 100 µM
- TGI (ACHN renal): > 100 µM
- TGI (OVCAR-8 ovarian): > 100 µM
- TGI (NCI-H23 lung): > 100 µM
- TGI (SK-MEL-28 melanoma): > 100 µM
- GI50 (NCI-H522 lung): 19 µM
- TGI (NCI-H522 lung): 50.7 µM
- TGI (RPMI-8226 leukemia): > 100 µM
- TGI (NCI-H226 lung): 67.1 µM
- TGI (K-562 leukemia): > 100 µM
- TGI (CCRF-CEM leukemia): > 100 µM
- TGI (MDA-MB-231 breast): > 100 µM
- TGI (UACC-62 melanoma): 49.2 µM
- TGI (MDA-MB-435): > 100 µM
- TGI (OVCAR-5 ovarian): > 100 µM
- TGI (OVCAR-3 ovarian): > 100 µM
- TGI (NCI-H460 lung): > 100 µM
- TGI (PC-3 prostate): > 100 µM
- TGI (U251 CNS): > 100 µM
- TGI (M14 melanoma): > 100 µM
- TGI (786-0 renal): 81.6 µM
- TGI (MOLT-4 leukemia): > 100 µM
- TGI (HOP-62 NSCLC): 79.7 µM
- TGI (MCF7 breast): > 100 µM
- TGI (LOX IMVI melanoma): > 100 µM
- TGI (SW-620 colon): > 100 µM
- TGI (A549 NSCLC): > 100 µM
- GI50 (SF-268 CNS): 7.23 µM
- TGI (SF-268 CNS): 40.1 µM

SMILES: COI1NC(=O)c2ccccc21
- TGI (IGROV1 ovarian): > 100 µM
- TGI (COLO 205 colon): > 100 µM
- TGI (HL-60(TB) leukemia): > 100 µM
- TGI (TK-10 renal): > 100 µM
- TGI (SK-MEL-5 melanoma): > 100 µM
- TGI (HOP-92 NSCLC): > 100 µM
- TGI (SK-OV-3 ovarian): > 100 µM
- TGI (HCT-15 colon): > 100 µM
- TGI (SN12C renal): > 100 µM
- TGI (SNB-75 CNS): > 100 µM
- TGI (SNB-19 CNS): > 100 µM
- TGI (NCI/ADR-RES ovarian): > 100 µM
- TGI (UO-31 renal): > 100 µM
- TGI (OVCAR-4 ovarian): > 100 µM
- TGI (MALME-3M melanoma): > 100 µM
- TGI (DU-145 prostate): > 100 µM
- TGI (KM12 colon): > 100 µM
- TGI (HCT-116 colon): > 100 µM
- TGI (HT29 colon): > 100 µM
- TGI (MDA-N): > 100 µM
- TGI (SK-MEL-2 melanoma): > 100 µM
- TGI (EKVX NSCLC): > 100 µM
- TGI (SF-295 CNS): > 100 µM
- TGI (ACHN renal): > 100 µM
- TGI (OVCAR-8 ovarian): > 100 µM
- TGI (NCI-H23 lung): > 100 µM
- TGI (SK-MEL-28 melanoma): > 100 µM
- TGI (NCI-H522 lung): > 100 µM
- TGI (RPMI-8226 leukemia): > 100 µM
- TGI (NCI-H226 lung): > 100 µM
- TGI (K-562 leukemia): > 100 µM
- TGI (CCRF-CEM leukemia): > 100 µM
- TGI (MDA-MB-231 breast): > 100 µM
- TGI (UACC-62 melanoma): > 100 µM
- TGI (MDA-MB-435): > 100 µM
- TGI (OVCAR-5 ovarian): > 100 µM
- TGI (OVCAR-3 ovarian): > 100 µM
- TGI (PC-3 prostate): > 100 µM
- TGI (U251 CNS): > 100 µM
- TGI (A498 renal): > 100 µM
- TGI (M14 melanoma): > 100 µM
- TGI (786-0 renal): > 100 µM
- TGI (MOLT-4 leukemia): > 100 µM
- TGI (HOP-62 NSCLC): > 100 µM
- TGI (MCF7 breast): > 100 µM
- TGI (LOX IMVI melanoma): > 100 µM
- TGI (SW-620 colon): > 100 µM
- TGI (SR leukemia): > 100 µM
- TGI (HS 578T breast): > 100 µM
- TGI (A549 NSCLC): > 100 µM
- TGI (SF-268 CNS): > 100 µM
